Blank lines part the entries; values can stand above or below the molecule they belong to.
Tests used:
M421F-ERα ^LBD = molecular target: T1, M421F-ERα ^LBD (Homo sapiens, UniProt P03372, M421F); assay: PolarScreen competitive binding assay (fluorescence polarization) with M421F mutant
T1 construct: The polypeptide fragment 303-547 of the human ERα has been thus cloned; made in house; host or cells: E. coli Rosetta 2(DE3)pLysS
T1 sequence (P03372 303-547 M421F): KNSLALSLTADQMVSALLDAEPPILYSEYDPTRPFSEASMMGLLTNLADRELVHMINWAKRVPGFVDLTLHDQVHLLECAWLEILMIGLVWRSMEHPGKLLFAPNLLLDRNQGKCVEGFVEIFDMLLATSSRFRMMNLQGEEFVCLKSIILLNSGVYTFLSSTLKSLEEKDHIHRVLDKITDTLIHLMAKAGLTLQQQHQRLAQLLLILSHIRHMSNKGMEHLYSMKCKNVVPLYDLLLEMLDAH
Description: (§1) The PolarScreen assay was used to test the ligand binding affinity of wt-ERα ^LBD and its mutants towards different classes of estrogen disrupting compounds.
(§2) Each compound was tested in a range of 12 concentrations with the ER receptors (Figure 5). The compounds concentrations (X axis) were plotted in a logarithmic scale against the Polarization values (Y axis). The plot of compounds concentrations against Polarization were fitted with a one site competition […] logistic curve (see Materials and Methods for further details).
(§3) To test the binding affinity of the recombinant receptor for EDCs we used the competitive binding assay developed by Life Technologies for ERα, the PolarScreen Estrogen Receptor-α Competitor Green Assay.
(§4) The full length ERα provided with the kit was replaced by our recombinant ERα ^LBD. In short, wt or mutant ERα ^LBD are added to the Fluormone and incubated at 4°C for 45 minutes to form the receptor-Fluormone complex. This complex is then mixed and incubated at 25°C for 2 h with the individual EDCs and the intensity of the fluorescence polarization signal (directly proportional to the amount of Fluormone bound to the protein) measured. The addition of competitors displaces the Fluormone from the ERα ^LBD receptor, resulting in a decreased fluorescence signal. The fluorescence polarization anisotropy signal (P) is read using an Infinite 200 Pro multimode plate reader from Tecan and calculated with the following equation: [drawing 1]
The P data (y) were fitted against the competitor concentrations (x) with a typical one site competition three parameters logistic curve: [drawing 2]
LogIC50 = Log of the concentration of test compound required to reduce the maximum polarization value by 50%. All the resulting IC50 values are obtained by the average of at least four different experiments.

M421I-ERα ^LBD = molecular target: T2, M421I-ERα ^LBD (Homo sapiens, UniProt P03372, M421I); assay: PolarScreen competitive binding assay (fluorescence polarization) with M421I mutant
T2 construct: The polypeptide fragment 303-547 of the human ERα has been thus cloned; made in house; host or cells: E. coli Rosetta 2(DE3)pLysS
T2 sequence (P03372 303-547 M421I): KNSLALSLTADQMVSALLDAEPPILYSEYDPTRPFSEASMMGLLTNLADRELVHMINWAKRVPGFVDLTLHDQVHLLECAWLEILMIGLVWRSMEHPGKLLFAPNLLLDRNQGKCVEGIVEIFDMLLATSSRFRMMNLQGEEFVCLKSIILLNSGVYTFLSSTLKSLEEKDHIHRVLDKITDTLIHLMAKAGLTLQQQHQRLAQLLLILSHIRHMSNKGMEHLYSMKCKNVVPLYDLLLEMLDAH
Description: as §1, §2, §3
as §4, with “In short, wt or mutant ERα ^LBD are added to the Fluormone and incubated at 4°C for 45 minutes to form the receptor-Fluormone complex.” left out, “1] […]” for “1]”

wt-ERα ^LBD = molecular target: T3, wt-ERα ^LBD (Homo sapiens, UniProt P03372); assay: PolarScreen competitive binding assay (fluorescence polarization) with wt-ERα LBD
T3 construct: The polypeptide fragment 303-547 of the human ERα has been thus cloned; made in house; host or cells: E. coli Rosetta 2(DE3)pLysS
T3 sequence (P03372 303-547): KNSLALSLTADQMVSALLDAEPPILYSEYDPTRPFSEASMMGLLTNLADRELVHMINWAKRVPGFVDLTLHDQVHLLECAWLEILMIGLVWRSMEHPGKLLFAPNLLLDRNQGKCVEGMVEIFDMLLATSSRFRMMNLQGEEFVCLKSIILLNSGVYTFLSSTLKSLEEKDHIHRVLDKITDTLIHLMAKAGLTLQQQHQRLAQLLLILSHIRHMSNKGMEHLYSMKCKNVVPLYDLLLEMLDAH
Description: as §1, §2, §3
as §4, with “In short, wt or mutant ERα ^LBD are added to the Fluormone and incubated at 4°C for 45 minutes to form the receptor-Fluormone complex.” left out, “1] […]” for “1]”

[1] = Thermal unfolding followed by CD spectroscopy at 222 nm; assay type: physicochemical
Description: The thermal stability of the different ERs was assessed by following the protein thermal unfolding between 25 and 90°C with CD spectroscopy (Figures 3D, 3E and 3F). The unfolding process is not reversible: by cooling back the samples to 25°C only around 50% of the original secondary structure of the protein is recovered (data not shown). By fitting the experimental data with a Boltzmann-type equation it was possible to calculate melting temperature (Tm) values of 59.5±1.5°C, 65.8±1.4°C, and 61.5±1.3°C for the wt-ERα ^LBD, M421F-ERα ^LBD, and M421I-ERα ^LBD proteins, respectively.
Circular dichroism spectra were recorded with a J750 Circular dichroism spectrometer from Jasco interfaced with a Peltier temperature control unit with 1 mm path length cuvette. Analysis of the far-UV region (185–260 nm) was used to investigate the secondary structure and the folding of the protein. CD spectra were analyzed with the DichroWeb online software, by means of the CDSSTR program. Thermal denaturation experiments were performed by monitoring the circular dichroism at 222 nm while changing the temperature from 25 to 90°C (1°C/min) and backward. Reference spectra were collected for the buffers in which proteins were dissolved. Denaturation curves were analyzed assuming a two-state unfolding model and melting temperature (Tm) was calculated for every mutant. […]

binds more strongly to M421F-ERα ^LBD than to wt-ERα ^LBD (M421F-ERα ^LBD; from IC50 values, M421F versus wt): approximately 6 times
Molecule: CC(C)(c1ccc(O)cc1)c1ccc(O)cc1 [Bisphenol-A]

Molecule: CCCCCCCCCc1ccc(O)cc1 [4-Nonylphenol]
IC50 (M421I-ERα ^LBD): 60 ± 30 µM | IC50 (M421F-ERα ^LBD): 4 ± 2 µM | IC50 of M421F-ERα ^LBD compared to wt-ERα ^LBD (in words) (M421F-ERα ^LBD; M421F versus wt): twice as strong | IC50 (wt-ERα ^LBD): 8 ± 1 µM

B1: wt-ERα ^LBD: recombinant His6-tagged polypeptide fragment 303-547 (ligand binding domain) of human ERα, wild type (protein, UniProt P03372 303-547, looked up, fragment)
chain: KNSLALSLTADQMVSALLDAEPPILYSEYDPTRPFSEASMMGLLTNLADRELVHMINWAKRVPGFVDLTLHDQVHLLECAWLEILMIGLVWRSMEHPGKLLFAPNLLLDRNQGKCVEGMVEIFDMLLATSSRFRMMNLQGEEFVCLKSIILLNSGVYTFLSSTLKSLEEKDHIHRVLDKITDTLIHLMAKAGLTLQQQHQRLAQLLLILSHIRHMSNKGMEHLYSMKCKNVVPLYDLLLEMLDAH
modifications: ligand binding domain His6 tag
melting temperature (Tm) ([1]; CD at 222 nm, 25 to 90°C, Boltzmann-type fit): 59.5±1.5 °C | melting temperature higher than that previously reported for the full-length ERα protein ([1]; versus full-length ERα): about 20 °C
